Results taken from patent publication US8183215B2, “Method of administering oral flora-improving agent, antibacterial agent and growth promoter” (Megmilk Snow Brand Co., Ltd., priority 2004, dated 2012).
Bridge positions count the residues as written; N and C are the ends. Square brackets hold non-standard residues; d marks the D form. Peptide text beside a SMILES is read from it. * marks the point of attachment. Ileψ(thiazoline)Cys = CC[C@H](C)[C@H](N)C1=N[C@H](C(=O)*)CS1; dOrn = NCCC[C@@H](N)C(=O)O

Tests used:
Test in all cases: Radial Diffusion Assay, antibacterial / growth promoting activity
Type in all cases: cell-based
[1] = system: Staphylococcus aureus Cowan I strain; conditions: 5 μl sample in hole, zone measured after 18 hours at 37° C.
Method: (§1) The influences of gangliosides on oral bacteria were examined by Radial Diffusion Assay. That is, 3 mg of Tryptic Soy medium (Difco), 20 μl of Tween 20, and 100 mg of agarose were dissolved in 10 ml of ultrapure water and sterilized. 100 μl of solution of bacteria having an OD620 of 0.2 (5×10^7 cfu/ml) was added to the sterilized medium, and then the resultant mixture was dispensed in Petri dishes and allowed to solidify at room temperature. Each solidified medium was provided with a hole of about 2.5 mm in diameter and 5 μl of each solution of ganglioside GM3 or ganglioside GD3 derived from milk for the evaluation of the antibacterial effect was added to the hole and incubated at 37° C. for 1 hour. Further, a sterilized medium obtained by dissolving 0.6 g of Tryptic Soy medium and 100 mg of agarose in 10 ml of ultrapure water was superposed on the solidified medium and left to solidify at room temperature, and then stationary cultured in an incubator at 37° C. After 18 hours, the diameter of a clear zone formed around the hole formed in the medium was measured. A length obtained by subtracting the diameter (mm) of the hole formed in the medium from the diameter (mm) of a clear zone formed by inhibition of the growth of the bacterium was defined as antibacterial activity. On the other hand, when colonies of the bacterium were formed around the hole in the medium and an opaque zone was observed, it was assumed that growth promotion took place, and a length obtained by subtracting the diameter (mm) of the hole formed in the medium from the diameter (mm) of an opaque zone was defined as growth promotion activity. The bacterial strains subjected to the test include Streptococcus sobrinus 6715 strain, Streptococcus anginosus ATCC33397 strain, and Staphylococcus aureus Cowan I strain as harmful oral bacteria; Streptococcus agalactiae ATCC46448 strain and Actinomyces naeslundii JCM8349 strain as habitant oral bacteria; and Streptococcus mitis GTC495 strain, Streptococcus mitis ATCC6249 strain, and Streptococcus mitis ATCC903 strain as useful oral bacteria.
(§2) Bacitracin, which is an antibacterial component separated from Bacillus subtilis, was used as a positive control and a sample showing an antibacterial activity of 2.0 mm or more was judged to be positive (having an antibacterial activity). As for the growth promoting effect, a sample having a growth promoting activity of 1.0 mm or more was judged to be positive (having a growth promoting activity).

[2] = system: Streptococcus mitis ATCC903 strain; conditions: 5 μl sample in hole, zone measured after 18 hours at 37° C.
Method: as §1, §2

[3] = system: Streptococcus sobrinus 6715 strain; conditions: 5 μl sample in hole, zone measured after 18 hours at 37° C.
Method: as §1, §2

[4] = system: Streptococcus agalactiae ATCC46448 strain; conditions: for antibacterial activity / growth promoting activity: Streptococcus agalactiae ATCC46448, 5 μl sample in hole, zone measured after 18 hours at 37° C.; for antibacterial and growth promoting activity, result in words: Streptococcus agalactiae ATCC46448 strain
Method: as §1, §2

[5] = system: Streptococcus mitis GTC945; conditions: 5 μl sample in hole, zone measured after 18 hours at 37° C.
Method: as §1, §2

[6] = system: Streptococcus anginosus ATCC33397 strain; conditions: 5 μl sample in hole, zone measured after 18 hours at 37° C.
Method: as §1, §2

[7] = system: Actinomyces naeslundii JCM8349 strain; conditions: for antibacterial activity / growth promoting activity: Actinomyces naeslundii JCM8349, 5 μl sample in hole, zone measured after 18 hours at 37° C.; for antibacterial and growth promoting activity, result in words: Actinomyces naeslundii JCM8349 strain
Method: as §1, §2

[8] = system: Streptococcus mitis ATCC6249 strain; conditions: 5 μl sample in hole, zone measured after 18 hours at 37° C.
Method: as §1, §2

| Molecule | antibacterial activity / growth promoting activity [1] | antibacterial activity / growth promoting activity [2] | antibacterial activity / growth promoting activity [3] | antibacterial activity / growth promoting activity [4] | antibacterial activity / growth promoting activity [5] | antibacterial activity / growth promoting activity [6] | antibacterial activity / growth promoting activity [7] | antibacterial activity / growth promoting activity [8] | antibacterial and growth promoting activity, result in words [4] | antibacterial and growth promoting activity, result in words [7] |
| --- | --- | --- | --- | --- | --- | --- | --- | --- | --- | --- |
| CC[C@H](C)[C@H](N)C1=N[C@H](C(=O)N[C@@H](CC(C)C)C(=O)N[C@H](CCC(=O)O)C(=O)N[C@H](C(=O)N[C@H]2CCCCNC(=O)[C@H](CC(N)=O)NC(=O)[C@@H](CC(=O)O)NC(=O)[C@H](Cc3cnc[nH]3)NC(=O)[C@@H](Cc3ccccc3)NC(=O)[C@H]([C@@H](C)CC)NC(=O)[C@@H](CCCN)NC2=O)[C@@H](C)CC)CS1 [Bacitracin, reference compound] ({Ileψ(thiazoline)Cys}-L[dE]IK[dOrn]I[dF]H[dD]N; lactam 4-C) | + (Having an antibacterial activity) | + (Having an antibacterial activity) | + (Having an antibacterial activity) | + (Having an antibacterial activity) | + (Having an antibacterial activity) | + (Having an antibacterial activity) | + (Having an antibacterial activity) | + (Having an antibacterial activity) | – | – |
| ganglioside GM3 | + (Having an antibacterial activity) | * (Having a growth promoting activity) | + (Having an antibacterial activity) | − (Having no antibacterial activity) | * (Having a growth promoting activity) | + (Having an antibacterial activity) | − (Having no antibacterial activity) | * (Having a growth promoting activity) | neither an antibacterial activity nor a growth promoting activity | neither an antibacterial activity nor a growth promoting activity |
| ganglioside GD3 | + (Having an antibacterial activity) | * (Having a growth promoting activity) | + (Having an antibacterial activity) | − (Having no antibacterial activity) | * (Having a growth promoting activity) | + (Having an antibacterial activity) | − (Having no antibacterial activity) | * (Having a growth promoting activity) | neither an antibacterial activity nor a growth promoting activity | neither an antibacterial activity nor a growth promoting activity |
